Results as given in patent publication US6686393B1, “Pharmaceutical compositions having antiviral activity against human cytomegalovirus” (Murdock International Corporation, priority 1990, dated 2004).
Several values for one entry are separate records, joined by “and”; a condition that tells them apart may be missing. Equal entries are not always repeated. Entries after “also recorded” stand apart in the source; their conditions may differ. Where two headings read alike, the source gives them in different places.

Key:
[1] = system: human cytomegalovirus (HCMV), strain AD-169; assay: Antiviral test (plaque reduction) versus HCMV, strain AD-169, in MRC-5 cells; assay type: cell-based
[2] = system: HCMV, strain C8805-37 (DHPG-resistant); assay: microbe, parasite or virus in culture; assay type: cell-based, human cytomegalovirus; details: for inhibition at 10 µg/mL: Human betaherpesvirus 5, MRC5, 96 h, read-out: Percent Inhibition Compared to Controls; for inhibition at 0.01 µg/mL / inhibition at 0.032 µg/mL / inhibition at 0.1 µg/mL / inhibition at 0.32 µg/mL / inhibition at 1 µg/mL / inhibition at 3.2 µg/mL: Human betaherpesvirus 5, MRC5, read-out: Percent Inhibition Compared to Controls
[3] = Human betaherpesvirus 5, AD169, MRC5, read-out: % Reduction
[4] = Table 9 summary, two values = two experiments

With `O=C1c2ccccc2C(=O)c2c(O)c(O)cc(O)c21` [Purpurin, purpurin] the inhibition at 0.01 µg/mL [1, 3] was 0%, the inhibition at 0.032 µg/mL [1, 3] was 0% and the inhibition at 0.1 µg/mL [1, 3] was 0%. It also gave an inhibition at 0.32 µg/mL [1, 3] of 0%, an inhibition at 1 µg/mL [1, 3] of 0% and an inhibition at 3.2 µg/mL [1, 3] of 0%. For the same compound, the CD50 (MRC-5 cells; human) was 5.6 µg/mL.

With `O=C1c2ccc(O)c(O)c2C(=O)c2c(O)ccc(O)c21` [Quinalizarin, quinalizarin] the “Activity against HCMV” value [1] was “definitely active; also recorded: show activity”, the inhibition at 3.2 µg/mL [1, 3] was 100% and the inhibition at 10 µg/mL [2] was 98%. The inhibition at 0.01 µg/mL [2] was 21%, the inhibition at 0.032 µg/mL [2] was 44% and the inhibition at 0.1 µg/mL [2] was 20%. The inhibition at 0.32 µg/mL [2] was 0%, the inhibition at 1 µg/mL [2] was 42% and the inhibition at 3.2 µg/mL [2] was 88%. It also gave a CD50 (MRC-5 cells; human, 4 days) greater than 10 µg/mL.

In the case of `O=C1c2ccccc2C(=O)c2c(O)ccc(O)c21` [Quinizarin, 1,4-dihydroxyanthraquinone], the “Activity against HCMV” value [1] is reported as “Slight activity; also recorded: show activity; also recorded: activity but at lower levels”, the inhibition at 0.01 µg/mL [1, 3] is reported as 0% and the inhibition at 0.032 µg/mL [1, 3] is reported as 0%. For the same compound, the inhibition at 0.1 µg/mL [1, 3] was 0%, the inhibition at 0.32 µg/mL [1, 3] was 0% and the CD50 (MRC-5 cells; human) was greater than 10 µg/mL.

For `O=C(O)c1cc(O)c2c(c1)C(=O)c1cccc(O)c1C2=O` [Rhein, rhein], the inhibition at 3.2 µg/mL [1, 3] was 100%, the inhibition at 10 µg/mL [2] was 100% and the inhibition at 0.01 µg/mL [2] was 0%. The inhibition at 0.032 µg/mL [2] was 0%, the inhibition at 0.1 µg/mL [2] was 38% and the inhibition at 0.32 µg/mL [2] was 0%. The inhibition at 1 µg/mL [2] was 49%, the inhibition at 3.2 µg/mL [2] was 100% and the CD50 (MRC-5 cells; Example 3, cells exposed 4 days) was greater than 10 µg/mL. For the same compound, the CD50 (MRC-5 cells; Example 5) was 3.4 µg/mL, the CD50 (MRC-5 cells; Example 7) was 2.9 µg/mL and the CD50 (MRC-5 cells; [4]) was 3.4 µg/mL and 2.9 µg/mL. The CD50 (MRC-5 cells; Table 10 summary, DHPG resistant HCMV test) was greater than 10 µg/mL.

protohypericin was tested, and the “Activity against HCMV” value [1] was “show activity; also recorded: good biological activity”, the “Activity in initial screening against HCMV in vitro” value [1] was “active” and the “Percent Inhibition of Plaque Numbers (Compared to Virus Controls)” value [1] was 0%. For the same compound, the CD50 (MRC-5 cells; Example 2, cells exposed 6 or more days) was 5.6 µg/mL and the CD50 (MRC-5 cells; [4]) was 5.6 µg/mL.
